Results from patent publication US6979747B2, “Antioxidants, preparation processes and their uses” (Centre National de la Recherche Scientifique (CNRS), priority 1999, dated 2005).

Biological target: T1, RT of the HIV-1 LAI isolate (Human immunodeficiency virus type 1 group M subtype B, UniProt P03367)
T1 construct: The RT is released by lysis of the viral pellet in 20 μl of NTE-Triton; endogenous in cells; host or cells: Virions pelleted by ultracentrifugation from supernatants of infected cell cultures
Test: Acellular test of the enzymatic activity of RT
Type: biochemical
Details: acellular system
Experimental: The viral replication is measured by assaying the RT activity in the culture supernatants according to the technique described by F. Rey et al. (Biochem. Biophys. Res. Comm., 1984, 121, 126-133). The radioactivity incorporated during the extension of the complementary strand of a poly-rA synthetic matrix in the presence of an oligo-dT12-18 primer and of a radiolabeled substrate, [^3H-methyl]thymidine-5′-triphosphate ([^3H]TPP), makes it possible to assay the enzymatic activity of RT. 400 μl of supernatant are ultracentrifuged at 360 000 g for 5 min. The RT is released by lysis of the viral pellet in 20 μl of NTE-Triton (100 mM NaCl, 10 mM Tris, 1 mM EDTA, 0.1% Triton X-100). These 20 μl are subsequently incubated with 40 μl of the following reaction mixture: 62.5 mM Tris, pH 7.8; 25 mM KCl; 6.25 mM MgCl2; 1.25 mM dithiothreitol (DTT); 2.5×10^−3 ODU oligo-dT12-18 and poly-rA, 5.55×10^−3 TBq {^3H]TTP. After one hour at 37° C., the enzymatic reaction is halted and the newly synthesized strands are precipitated for 20 min at 4° C. by the addition of 1 ml of sodium pyrophosphate (NaPP), of 50 μl of yeast DNA (0.1 mg/ml in 5% trichluoroacetic acid (TCA)), and of 4 ml of 20% TCA. The mixture is filtered using a cellulose acetate membrane (Millipore) which retains the radiolabeled poly-dT chains. The filter is washed using 20 ml of 5% TCA and the residual water is removed by addition of 25 μl of 70% ethanol. The filter is dried in an oven for 10 minutes at 80° C. and is then introduced into vials containing 8 ml of liquid scintillant. The β radioactivity is quantified by means of a scintillation counter (Packard Bell). The results are expressed in pM of [^3H]-TMP incorporated/h/ml of supernatant or, more simply, in cpm/h/ml.
The I-152 molecule is composed of NAC and MEA, which are capable of inhibiting the activity of RT (A. Bergamini et al., J. Clin. Invest., 1994, 93, 2251-2257). For this reason, the inhibiting capacity of I-152 with respect to the RT activity was measured using an acellular test. This test was carried out according to the protocol described above (§ 3.3.3.1.). In the reaction mixture, only the 20 μl of water are replaced by 20 μl of a concentration of I-152 or of the reference compounds. Heparin, known for inhibiting the activity of RT and of the other DNA polymerases, is used as positive control for inhibition.

## CC(=O)N[C@@H](CS)C(=O)NCCSC(C)=O [I-152, N-(N-acetyl-L-cysteinyl)-S-acetylcysteamine]
  inhibiting activity with respect to RT (in words): do not exhibit an inhibiting activity
